Results: patent US20260174680A1, “MAMMARY GLAND TISSUE HEALTH MAINTENANCE AGENT HAVING GABA AS ACTIVE INGREDIENT” (SANWA SHURUI CO., LTD., priority 2022, published 2026)

Tests used:
mammary gland tissue [1] = test: Animal experiment: E2-induced mammary gland tissue dysplasia and invasion in scid mice; type: in vivo; details: 25 days
Description: Ten-week-old Scid mice were intraperitoneally administered with 6 μg of E2 per day for 25 days, and were simultaneously intraperitoneally administered with 6 μg of Equol per day and/or were intraperitoneally administered with 0.5 mg (low) or 5 mg (high) of GABA per day. The fourth mammary gland was sampled 24 hours after the final administration, and photographs are shown of tissue observation by hematoxylin and eosin (H&E) staining (upper row) and Elastica van Gieson (EVG) staining (lower row).
This mouse model system that develops early stage breast cancer is an experimental system developed by the present inventors, and a system in which scid mice, which are a mouse strain with reduced DNA repair ability, are used to be administered estradiol (E2) intraperitoneally for […] to induce mammary gland tissue dysplasia. […] The present invention also uses this experimental system to evaluate the effects of GABA or the combined use of GABA and equol.
Ten-week-old scid mice were intraperitoneally administered PBS as a negative control group, 6 μg/day of E2 as a positive control group, 6 μg of E2+6 μg/day of equol (Eq) in experimental group 1, 6 μg of E2+0.5 mg/day of GABA in experimental group 2, 6 μg of E2+5 mg/day of GABA in experimental group 3, 6 μg of E 2+6 μg of Eq+0.5 mg of GABA in experimental group 4, and 6 μg of E 2+6 μg of Eq+5 mg of GABA in experimental group 5, with six mice in each group, every morning for 25 days. 24 hours after the final administration, the fourth mammary gland was sampled, and the tissue was observed by hematoxylin and eosin (H&E) staining and Elastica van Gieson (EVG) staining.
In addition, the frequency of occurrence of dysplasia in sections of the mammary gland tissue was evaluated.
Mouse (female): C. B-17/Icr-scid/scid Jel was purchased from CLEA Japan.
The E2 used was E2758 manufactured by SIGMA, the Equol (Eq) used was SML2147 manufactured by SIGMA, and the GABA used was A5835 manufactured by SIGMA.

mammary gland tissue [2] = details: equol intraperitoneally, with estradiol administered (Non-Patent Literature 1); cited from earlier work
MCF7 (ATCC HTB-22) cells = test: Cell test: E2-induced DNA double-strand break signals in MCF7 cells (P-Histone H2AX immunostaining); type: cell-based; details: 4 hours
Description: After MCF 7 (ATCC HTB-22) cells were cultured, and the medium was removed, 200 μL of PBS adjusted to E2-free, 10 nM of E2, or 10 nM of E2+0.3 μg/mL to 1.1 μg/mL of GABA was added to each well, and the cells were incubated at 37° C. and 5% of CO2 for 4 hours. The cells were visualized by adding a primary histone antibody, and the DNA double-strand break signals per cell were measured by observation under a microscope.
The cultured cells used were MCF7 (ATCC HTB-22). MCF7 cells were cultured for 2 days to 3 days in phenol red-free RPMI 1640 medium containing 10% of fetal bovine serum and 1 nM of E2.
The cells were passaged into phenol red-free RPMI medium containing 10% of charcoal-stripped serum (Charcoal-Stripped FBS, Thermo Fisher) and 1 nM of E 2, and seeded into an 8-well plate (SCS-N28 MAS-Coat, Matsunami) at 400 μL/well. After 1 day to 2 days, the medium on the 8-well plate was removed and replaced with serum-free, phenol red-free RPMI medium, and the cells were starved by culturing for 1 day to align the cell cycle to the G1 phase. […]
The cells were observed under a microscope, the DNA double-strand break signals per cell were measured, and statistical analysis was performed using the Mann-Whitney U-test, with p<0.05 being considered to indicate a significant difference. […]
For each experiment section, DNA double-strand break signals were counted in 100 cells.

[3] = experimental groups 1 to 5: Eq or GABA added to 6 μg/day E2 i.p.

Row | invasion in mammary gland tissue sections (H&E and EVG staining) (mammary gland tissue [1]; positive control: E2 only, 6 μg/day i.p.) | SMILES | frequency of occurrence of dysplasia (average of E2-only positive control taken as 100%) (mammary gland tissue [1]; experimental group 1: 6 μg E2 + 6 μg/day equol i.p., negative control 16%) | invasion in mammary gland tissue sections (H&E and EVG staining) (mammary gland tissue [1]; [3]) | mammary gland tissue dysplasia (mammary gland tissue [2]) | frequency of occurrence of dysplasia (average of E2-only positive control taken as 100%) (mammary gland tissue [1]; experimental group 2: 6 μg E2 + 0.5 mg/day GABA i.p.) [%] | frequency of occurrence of dysplasia (average of E2-only positive control taken as 100%) (mammary gland tissue [1]; experimental group 3: 6 μg E2 + 5 mg/day GABA i.p.) [%] | DNA damage (DNA double-strand break signals per cell) (MCF7 (ATCC HTB-22) cells; 10 nM E2 + 1.1 μg/mL GABA, Mann-Whitney U-test, p<0.05) | number of DNA damages (DNA double-strand break signals per cell) (MCF7 (ATCC HTB-22) cells; 10 nM E2 + 0.3 to 1.1 μg/mL GABA)
1 | – | Oc1ccc([C@H]2COc3cc(O)ccc3C2)cc1 [Eq, equol, reference compound] | approximately 58% | no invasion was observed | mammary gland tissue dysplasia was inhibited | – | – | – | –
2 | – | NCCCC(=O)O [GABA, γ-amino butyric acid] | – | no invasion was observed | – | 44 | 37 | significantly reduced DNA damage | tended to reduce the number of DNA damages
3 | showed invasion | C[C@]12CC[C@@H]3c4ccc(O)cc4CC[C@H]3[C@@H]1CC[C@@H]2O [E2, estradiol, reference compound] | – | – | – | – | – | – | –
